In ChEMBL document CHEMBL1201862, “PubChem BioAssay data set” (2004):
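Cultured in 96-well plates, cells were exposed to test compound for 48 hours across five concentrations. The concentration for 50% growth inhibition is given as GI50.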 The source made the active and inactive calls. Rule as the data show it: active = GI50 up to about 1.1 µM and inactive = higher.

How the values were obtained:
Experiment in all cases: NCI anticancer screen, dose series, 48 h
SK-MEL-5 = system: SK-MEL-5
DLD-1 = system: DLD-1
SNB-19 = system: SNB-19
SW-620 = system: SW-620
MOLT-4 = system: MOLT-4
OVCAR-3 = system: OVCAR-3
NCI-H23 = system: NCI-H23
SK-OV-3 = system: SK-OV-3
UO-31 = system: UO-31
UACC-257 = system: UACC-257
RPMI-8226 = system: RPMI-8226
SF-268 = system: SF-268
CCRF-CEM = system: CCRF-CEM
SK-MEL-2 = system: SK-MEL-2
CAKI-1 = system: CAKI-1
U-251 = system: U-251
ACHN = system: ACHN
HT-29 = system: HT-29
TK-10 = system: TK-10
HL-60 = system: HL-60
HOP-92 = system: HOP-92
NCI-H226 = system: NCI-H226
HOP-18 = system: HOP-18
M14 = system: M14
HCT-116 = system: HCT-116
M19-MEL = system: M19-MEL
NCI-H522 = system: NCI-H522
SK-MEL-28 = system: SK-MEL-28
OVCAR-4 = system: OVCAR-4
Malme-3M = system: Malme-3M
RXF 393 = system: RXF 393
SNB-75 = system: SNB-75
LOX IMVI = system: LOX IMVI
SF-539 = system: SF-539
DMS-273 = system: DMS-273
K562 = system: K562
DMS-114 = system: DMS-114
OVCAR-8 = system: OVCAR-8
786-0 = system: 786-0
NCI-H460 = system: NCI-H460
HOP-62 = system: HOP-62
LXFL 529 = system: LXFL 529
KM-20L2 = system: KM-20L2
OVCAR-5 = system: OVCAR-5
A498 = system: A498
SN12C = system: SN12C
UACC-62 = system: UACC-62
EKVX = system: EKVX
A549 = system: A549
IGROV-1 = system: IGROV-1
COLO 205 = system: COLO 205
HCT-15 = system: HCT-15
SF-295 = system: SF-295
KM12 = system: KM12
HCC 2998 = system: HCC 2998
SR = system: SR
SNB-78 = system: SNB-78
XF498 = system: XF498

## COc1cc([C@@H]2c3cc4c(cc3[C@@H](NC(=O)c3ccc(N)cc3)C3COC(=O)[C@@H]32)OCO4)cc(OC)c1O (some centres not stated)
SK-MEL-5
  GI50: 2.81 µM (inactive)
DLD-1
  GI50: 3.47 µM (inactive)
SNB-19
  GI50: 1.34 µM (inactive)
SW-620
  GI50: 1.03 µM (active)
MOLT-4
  GI50: 0.0375 µM (active)
OVCAR-3
  GI50: 7.46 µM (inactive)
NCI-H23
  GI50: 1.3 µM (inactive)
SK-OV-3
  GI50: 2.14 µM (inactive)
UO-31
  GI50: 11.9 µM (inactive)
UACC-257
  GI50: 9.16 µM (inactive)
RPMI-8226
  GI50: 1.61 µM (inactive)
SF-268
  GI50: 2.41 µM (inactive)
CCRF-CEM
  GI50: 0.292 µM (active)
SK-MEL-2
  GI50: 7.74 µM (inactive)
CAKI-1
  GI50: 5.4 µM (inactive)
U-251
  GI50: 0.362 µM (active)
ACHN
  GI50: 0.597 µM (active)
HT-29
  GI50: 2.41 µM (inactive)
TK-10
  GI50: 9.68 µM (inactive)
HL-60
  GI50: 0.207 µM (active)
HOP-92
  GI50: 4.85 µM (inactive)
NCI-H226
  GI50: 0.881 µM (active)
HOP-18
  GI50: > 100 µM (inactive)
M14
  GI50: 2.72 µM (inactive)
HCT-116
  GI50: 2.47 µM (inactive)
M19-MEL
  GI50: 12.5 µM (inactive)
NCI-H522
  GI50: 1.75 µM (inactive)
SK-MEL-28
  GI50: 5.15 µM (inactive)
OVCAR-4
  GI50: 93.8 µM (inactive)
Malme-3M
  GI50: 2.51 µM (inactive)
RXF 393
  GI50: 15.7 µM (inactive)
SNB-75
  GI50: 1.29 µM (inactive)
LOX IMVI
  GI50: 1.45 µM (inactive)
SF-539
  GI50: 1.02 µM (active)
DMS-273
  GI50: 0.37 µM (active)
K562
  GI50: 3.52 µM (inactive)
DMS-114
  GI50: 2 µM (inactive)
OVCAR-8
  GI50: 2.53 µM (inactive)
786-0
  GI50: 1.36 µM (inactive)
NCI-H460
  GI50: < 0.01 µM (active)
HOP-62
  GI50: 0.535 µM (active)
LXFL 529
  GI50: 13.9 µM (inactive)
KM-20L2
  GI50: 1.73 µM (inactive)
OVCAR-5
  GI50: 4.49 µM (inactive)
A498
  GI50: 1.64 µM (inactive)
SN12C
  GI50: 0.853 µM (active)
UACC-62
  GI50: 1.19 µM (inactive)
EKVX
  GI50: 3.62 µM (inactive)
A549
  GI50: 0.119 µM (active)
IGROV-1
  GI50: 1.42 µM (inactive)
COLO 205
  GI50: 10.8 µM (inactive)
HCT-15
  GI50: 12.6 µM
SF-295
  GI50: 1.98 µM (inactive)
KM12
  GI50: 2.65 µM (inactive)
HCC 2998
  GI50: 3.61 µM (inactive)

## O=C1c2ccccc2N2Oc3ccccc3C12c1ccccc1 (configuration not stated)
SK-MEL-5
  GI50: > 100 µM (inactive)
DLD-1
  GI50: > 10 µM (inactive)
SNB-19
  GI50: > 100 µM (inactive)
SW-620
  GI50: > 100 µM (inactive)
MOLT-4
  GI50: > 100 µM (inactive)
NCI-H23
  GI50: > 100 µM (inactive)
SK-OV-3
  GI50: > 100 µM (inactive)
UO-31
  GI50: > 100 µM (inactive)
UACC-257
  GI50: > 100 µM (inactive)
RPMI-8226
  GI50: > 100 µM (inactive)
SF-268
  GI50: > 100 µM (inactive)
CCRF-CEM
  GI50: > 100 µM (inactive)
U-251
  GI50: > 100 µM (inactive)
ACHN
  GI50: > 100 µM (inactive)
HT-29
  GI50: > 100 µM (inactive)
HL-60
  GI50: > 100 µM (inactive)
HOP-92
  GI50: 92.7 µM (inactive)
NCI-H226
  GI50: 59.4 µM (inactive)
HOP-18
  GI50: > 100 µM (inactive)
M14
  GI50: > 100 µM (inactive)
HCT-116
  GI50: > 100 µM (inactive)
M19-MEL
  GI50: > 100 µM (inactive)
NCI-H522
  GI50: > 100 µM (inactive)
SK-MEL-28
  GI50: > 100 µM (inactive)
OVCAR-4
  GI50: > 100 µM (inactive)
Malme-3M
  GI50: > 100 µM (inactive)
RXF 393
  GI50: > 100 µM (inactive)
SNB-75
  GI50: > 100 µM (inactive)
SF-539
  GI50: > 100 µM (inactive)
DMS-273
  GI50: > 100 µM (inactive)
SR
  GI50: > 100 µM (inactive)
K562
  GI50: > 100 µM (inactive)
DMS-114
  GI50: > 100 µM (inactive)
OVCAR-8
  GI50: > 100 µM (inactive)
786-0
  GI50: > 100 µM (inactive)
HOP-62
  GI50: > 100 µM (inactive)
LXFL 529
  GI50: > 100 µM (inactive)
KM-20L2
  GI50: > 100 µM (inactive)
SNB-78
  GI50: > 100 µM (inactive)
A498
  GI50: > 100 µM (inactive)
SN12C
  GI50: > 100 µM (inactive)
UACC-62
  GI50: > 100 µM (inactive)
EKVX
  GI50: > 100 µM (inactive)
A549
  GI50: > 100 µM (inactive)
IGROV-1
  GI50: > 100 µM (inactive)
COLO 205
  GI50: > 100 µM (inactive)
HCT-15
  GI50: > 100 µM
SF-295
  GI50: > 100 µM (inactive)
HCC 2998
  GI50: > 100 µM (inactive)

## OC/C=C(\I)CCCOCOCc1ccccc1
SK-MEL-5
  GI50: 22.1 µM (inactive)
DLD-1
  GI50: > 100 µM (inactive)
SNB-19
  GI50: 52.8 µM (inactive)
SW-620
  GI50: 44 µM (inactive)
MOLT-4
  GI50: 3.1 µM (inactive)
OVCAR-3
  GI50: 30.8 µM (inactive)
NCI-H23
  GI50: 26.3 µM (inactive)
SK-OV-3
  GI50: > 100 µM (inactive)
UO-31
  GI50: 25.4 µM (inactive)
XF498
  GI50: 14 µM (inactive)
RPMI-8226
  GI50: 18.2 µM (inactive)
SF-268
  GI50: 27.7 µM (inactive)
CCRF-CEM
  GI50: 20.7 µM (inactive)
SK-MEL-2
  GI50: 19.2 µM (inactive)
U-251
  GI50: 23.4 µM (inactive)
ACHN
  GI50: 32.3 µM (inactive)
HT-29
  GI50: 36.2 µM (inactive)
TK-10
  GI50: > 100 µM (inactive)
HL-60
  GI50: 15.9 µM (inactive)
HOP-92
  GI50: 15.7 µM (inactive)
NCI-H226
  GI50: 27.4 µM (inactive)
M14
  GI50: 31.1 µM (inactive)
HCT-116
  GI50: 28.1 µM (inactive)
M19-MEL
  GI50: 32.1 µM (inactive)
NCI-H522
  GI50: 23.3 µM (inactive)
SK-MEL-28
  GI50: 37.9 µM (inactive)
OVCAR-4
  GI50: 24.5 µM (inactive)
RXF 393
  GI50: 16.4 µM (inactive)
SNB-75
  GI50: 53.1 µM (inactive)
LOX IMVI
  GI50: 19.2 µM (inactive)
SF-539
  GI50: 50.6 µM (inactive)
DMS-273
  GI50: 21.8 µM (inactive)
K562
  GI50: 40 µM (inactive)
DMS-114
  GI50: 22.8 µM (inactive)
OVCAR-8
  GI50: 41.4 µM (inactive)
786-0
  GI50: 28.8 µM (inactive)
NCI-H460
  GI50: 40.7 µM (inactive)
HOP-62
  GI50: 42.5 µM (inactive)
LXFL 529
  GI50: 48.9 µM (inactive)
KM-20L2
  GI50: 29.5 µM (inactive)
OVCAR-5
  GI50: 45.4 µM (inactive)
SNB-78
  GI50: 25.6 µM (inactive)
A498
  GI50: 60.8 µM (inactive)
SN12C
  GI50: 42.9 µM (inactive)
UACC-62
  GI50: 34.6 µM (inactive)
EKVX
  GI50: 36.5 µM (inactive)
A549
  GI50: 32 µM (inactive)
IGROV-1
  GI50: 98.2 µM (inactive)
COLO 205
  GI50: 67.1 µM (inactive)
HCT-15
  GI50: 38.5 µM
SF-295
  GI50: 36.1 µM (inactive)
KM12
  GI50: > 100 µM (inactive)
HCC 2998
  GI50: 34 µM (inactive)
